Data published in article PMC11233931, “Remodeling tumor‐associated macrophage for anti‐cancer effects by rational design of irreversible inhibition of mitogen‐activated protein kinase‐activated protein kinase 2” (MedComm, 2024).

Tests used:
Assay in all cases: Eurofins kinase selectivity profile against 380 other human recombinant kinases (Table S2)
Assay type in all cases: biochemical
[1] = target: T1, 380 human recombinant protein kinases (Homo sapiens, UniProt Q8IZX4); details: TAF1L(h), read-out: Inhibition rate (%)
T1 construct: purchased Eurofins (Celle Lévescault)
T1 sequence (Q8IZX4 whole entry): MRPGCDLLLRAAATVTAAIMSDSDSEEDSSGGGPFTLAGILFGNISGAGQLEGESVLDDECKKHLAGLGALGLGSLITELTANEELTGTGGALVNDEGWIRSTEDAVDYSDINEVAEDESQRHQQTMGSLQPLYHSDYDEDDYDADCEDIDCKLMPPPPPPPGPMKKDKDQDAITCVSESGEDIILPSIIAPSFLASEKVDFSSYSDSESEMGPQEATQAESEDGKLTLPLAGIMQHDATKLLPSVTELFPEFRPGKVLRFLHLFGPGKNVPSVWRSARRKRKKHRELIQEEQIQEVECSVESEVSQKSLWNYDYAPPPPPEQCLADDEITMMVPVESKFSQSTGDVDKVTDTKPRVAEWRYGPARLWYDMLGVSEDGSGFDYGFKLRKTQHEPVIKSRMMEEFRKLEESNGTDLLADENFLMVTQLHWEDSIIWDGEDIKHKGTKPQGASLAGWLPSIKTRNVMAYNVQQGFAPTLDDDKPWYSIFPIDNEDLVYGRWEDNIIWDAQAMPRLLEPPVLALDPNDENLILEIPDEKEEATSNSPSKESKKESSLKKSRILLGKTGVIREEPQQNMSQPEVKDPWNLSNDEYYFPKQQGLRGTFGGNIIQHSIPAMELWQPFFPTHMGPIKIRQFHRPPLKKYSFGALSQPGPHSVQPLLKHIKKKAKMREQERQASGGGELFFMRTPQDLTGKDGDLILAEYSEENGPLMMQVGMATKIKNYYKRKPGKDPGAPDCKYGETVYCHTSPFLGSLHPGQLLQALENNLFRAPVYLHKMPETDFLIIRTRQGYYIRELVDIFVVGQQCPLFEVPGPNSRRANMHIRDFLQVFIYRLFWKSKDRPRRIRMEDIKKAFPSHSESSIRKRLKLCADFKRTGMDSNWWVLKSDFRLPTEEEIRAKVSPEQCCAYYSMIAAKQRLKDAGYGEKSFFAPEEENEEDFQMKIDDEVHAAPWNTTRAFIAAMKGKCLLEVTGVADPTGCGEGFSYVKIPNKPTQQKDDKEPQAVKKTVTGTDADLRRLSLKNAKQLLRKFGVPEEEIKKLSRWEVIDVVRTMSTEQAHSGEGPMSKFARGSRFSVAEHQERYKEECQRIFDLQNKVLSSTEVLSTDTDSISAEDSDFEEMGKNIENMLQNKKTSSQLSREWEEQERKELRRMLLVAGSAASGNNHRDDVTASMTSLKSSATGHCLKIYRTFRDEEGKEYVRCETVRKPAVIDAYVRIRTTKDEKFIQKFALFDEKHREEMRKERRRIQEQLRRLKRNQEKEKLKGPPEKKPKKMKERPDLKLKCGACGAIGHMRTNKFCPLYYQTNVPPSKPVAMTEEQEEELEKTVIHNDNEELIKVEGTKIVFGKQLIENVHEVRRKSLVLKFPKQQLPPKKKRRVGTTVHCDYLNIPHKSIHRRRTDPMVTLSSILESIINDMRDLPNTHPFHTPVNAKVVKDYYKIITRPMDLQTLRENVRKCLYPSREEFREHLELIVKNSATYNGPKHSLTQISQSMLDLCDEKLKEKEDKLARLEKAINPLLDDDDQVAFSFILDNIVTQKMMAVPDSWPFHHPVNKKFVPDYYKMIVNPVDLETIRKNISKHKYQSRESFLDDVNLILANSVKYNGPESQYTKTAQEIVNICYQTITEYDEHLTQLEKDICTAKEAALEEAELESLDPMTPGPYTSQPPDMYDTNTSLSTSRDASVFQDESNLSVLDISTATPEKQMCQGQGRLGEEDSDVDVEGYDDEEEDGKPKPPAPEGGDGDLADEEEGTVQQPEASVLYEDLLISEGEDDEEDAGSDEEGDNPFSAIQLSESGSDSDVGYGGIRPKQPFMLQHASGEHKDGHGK
How it was run: (§1)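 Values come from a contract kinase-profiling service that tested the compound at multiple concentrations across 380 recombinant human kinases, as an off-target check against the MK2 activity.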

[2] = target: T2, 380 human recombinant protein kinases (Homo sapiens, UniProt Q86V86); details: Pim-3(h), read-out: Inhibition rate
T2 construct: purchased Eurofins (Celle Lévescault)
How it was run: as §1

[3] = target: T3, 380 human recombinant protein kinases (Homo sapiens, UniProt Q52WX2); details: SBK1(h), read-out: Inhibition rate (%)
T3 construct: purchased Eurofins (Celle Lévescault)
T3 sequence (Q52WX2 whole entry): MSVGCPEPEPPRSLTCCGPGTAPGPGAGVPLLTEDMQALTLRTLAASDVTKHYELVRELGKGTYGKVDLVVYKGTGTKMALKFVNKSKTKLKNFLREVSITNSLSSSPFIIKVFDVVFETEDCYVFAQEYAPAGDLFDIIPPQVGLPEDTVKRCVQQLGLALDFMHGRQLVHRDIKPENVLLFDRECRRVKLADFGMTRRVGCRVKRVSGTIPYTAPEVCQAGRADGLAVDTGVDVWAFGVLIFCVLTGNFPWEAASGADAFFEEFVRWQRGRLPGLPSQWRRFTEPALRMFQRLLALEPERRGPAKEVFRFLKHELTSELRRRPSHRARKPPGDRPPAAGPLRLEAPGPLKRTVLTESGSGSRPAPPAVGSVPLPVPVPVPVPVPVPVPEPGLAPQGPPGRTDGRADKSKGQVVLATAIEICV
How it was run: as §1

[4] = target: T4, 380 human recombinant protein kinases (Homo sapiens, UniProt Q9P2K8); details: GCN2(h), read-out: Inhibition rate
T4 construct: purchased Eurofins (Celle Lévescault)
T4 sequence (Q9P2K8 whole entry): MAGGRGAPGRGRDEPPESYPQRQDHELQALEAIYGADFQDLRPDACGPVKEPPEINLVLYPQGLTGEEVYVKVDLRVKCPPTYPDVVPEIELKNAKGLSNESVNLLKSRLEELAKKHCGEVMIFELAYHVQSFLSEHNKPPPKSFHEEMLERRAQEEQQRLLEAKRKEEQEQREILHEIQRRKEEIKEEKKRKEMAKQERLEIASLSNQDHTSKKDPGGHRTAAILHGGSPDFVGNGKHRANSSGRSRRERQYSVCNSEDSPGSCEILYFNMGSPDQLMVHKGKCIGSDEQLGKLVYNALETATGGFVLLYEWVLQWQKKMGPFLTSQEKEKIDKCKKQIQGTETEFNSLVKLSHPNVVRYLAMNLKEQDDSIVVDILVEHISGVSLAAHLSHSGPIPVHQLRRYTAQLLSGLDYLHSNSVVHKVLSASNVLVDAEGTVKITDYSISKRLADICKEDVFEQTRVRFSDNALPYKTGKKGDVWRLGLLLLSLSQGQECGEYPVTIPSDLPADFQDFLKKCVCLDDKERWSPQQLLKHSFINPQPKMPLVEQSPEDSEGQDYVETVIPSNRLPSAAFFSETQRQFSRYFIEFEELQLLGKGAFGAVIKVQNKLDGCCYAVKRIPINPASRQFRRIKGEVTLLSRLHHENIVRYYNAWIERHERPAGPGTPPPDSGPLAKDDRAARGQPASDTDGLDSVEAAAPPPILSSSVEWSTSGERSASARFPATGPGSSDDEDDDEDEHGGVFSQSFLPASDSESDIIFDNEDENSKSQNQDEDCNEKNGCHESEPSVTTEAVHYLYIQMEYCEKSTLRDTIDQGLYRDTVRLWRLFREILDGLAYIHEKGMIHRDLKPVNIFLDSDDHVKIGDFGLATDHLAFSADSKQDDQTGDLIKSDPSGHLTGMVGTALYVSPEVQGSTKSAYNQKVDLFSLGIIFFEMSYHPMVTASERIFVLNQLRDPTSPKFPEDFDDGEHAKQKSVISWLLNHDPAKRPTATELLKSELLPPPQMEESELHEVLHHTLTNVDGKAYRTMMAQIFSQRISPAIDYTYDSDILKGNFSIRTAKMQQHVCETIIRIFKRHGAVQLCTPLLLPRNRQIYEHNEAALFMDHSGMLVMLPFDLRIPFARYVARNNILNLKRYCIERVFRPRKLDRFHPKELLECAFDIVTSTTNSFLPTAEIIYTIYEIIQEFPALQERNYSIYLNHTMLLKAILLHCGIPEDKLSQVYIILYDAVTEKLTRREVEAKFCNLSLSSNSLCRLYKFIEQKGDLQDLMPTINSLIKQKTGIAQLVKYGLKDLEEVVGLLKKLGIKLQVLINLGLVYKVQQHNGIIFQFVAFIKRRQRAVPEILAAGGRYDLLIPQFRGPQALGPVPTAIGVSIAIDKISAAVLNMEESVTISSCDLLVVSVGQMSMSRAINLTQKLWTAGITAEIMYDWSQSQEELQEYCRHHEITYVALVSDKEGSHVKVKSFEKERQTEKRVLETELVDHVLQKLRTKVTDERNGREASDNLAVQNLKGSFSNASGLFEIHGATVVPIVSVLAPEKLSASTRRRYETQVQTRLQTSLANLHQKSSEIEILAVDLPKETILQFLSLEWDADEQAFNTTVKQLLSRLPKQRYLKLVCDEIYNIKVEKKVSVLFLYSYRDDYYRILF
How it was run: as §1

[5] = target: T5, 380 human recombinant protein kinases (Homo sapiens, UniProt P30291); details: Wee1(h), read-out: Inhibition rate (%)
T5 construct: purchased Eurofins (Celle Lévescault)
T5 sequence (P30291 whole entry): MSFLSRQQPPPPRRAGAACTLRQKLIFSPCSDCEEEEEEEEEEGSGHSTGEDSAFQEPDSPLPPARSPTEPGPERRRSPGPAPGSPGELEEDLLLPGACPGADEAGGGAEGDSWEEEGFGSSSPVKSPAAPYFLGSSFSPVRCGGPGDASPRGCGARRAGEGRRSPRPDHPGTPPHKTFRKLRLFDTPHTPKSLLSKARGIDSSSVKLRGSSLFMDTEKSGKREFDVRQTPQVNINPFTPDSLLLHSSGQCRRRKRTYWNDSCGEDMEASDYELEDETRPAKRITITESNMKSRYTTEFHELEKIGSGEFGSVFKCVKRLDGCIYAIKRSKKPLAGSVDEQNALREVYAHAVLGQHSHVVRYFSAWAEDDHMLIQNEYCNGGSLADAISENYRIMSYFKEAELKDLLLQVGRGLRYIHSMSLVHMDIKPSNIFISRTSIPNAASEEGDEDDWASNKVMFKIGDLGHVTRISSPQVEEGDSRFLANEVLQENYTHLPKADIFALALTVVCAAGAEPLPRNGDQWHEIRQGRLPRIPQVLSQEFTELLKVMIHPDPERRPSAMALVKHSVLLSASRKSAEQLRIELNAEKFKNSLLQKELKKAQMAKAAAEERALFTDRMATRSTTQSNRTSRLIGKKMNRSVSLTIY
How it was run: as §1

[6] = target: T6, 380 human recombinant protein kinases (Homo sapiens, UniProt P36896); details: ALK4(h), read-out: Inhibition rate
T6 construct: purchased Eurofins (Celle Lévescault)
T6 sequence (P36896 24-505): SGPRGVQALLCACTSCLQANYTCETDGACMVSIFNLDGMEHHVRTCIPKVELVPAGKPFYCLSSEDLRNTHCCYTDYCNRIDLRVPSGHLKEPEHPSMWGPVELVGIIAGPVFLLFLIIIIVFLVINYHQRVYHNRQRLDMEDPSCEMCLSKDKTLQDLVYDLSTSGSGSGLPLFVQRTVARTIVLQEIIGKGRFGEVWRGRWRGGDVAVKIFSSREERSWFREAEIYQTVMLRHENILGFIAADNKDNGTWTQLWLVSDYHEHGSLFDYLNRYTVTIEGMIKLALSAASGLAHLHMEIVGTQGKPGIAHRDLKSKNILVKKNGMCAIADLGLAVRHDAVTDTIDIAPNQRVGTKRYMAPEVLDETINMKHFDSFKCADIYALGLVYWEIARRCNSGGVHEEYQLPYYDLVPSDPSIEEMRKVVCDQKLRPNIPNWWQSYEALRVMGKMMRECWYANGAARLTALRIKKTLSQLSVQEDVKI
How it was run: as §1

[7] = target: T7, 380 human recombinant protein kinases (Homo sapiens, UniProt P29320); details: EphA3(h), read-out: Inhibition rate
T7 construct: purchased Eurofins (Celle Lévescault)
T7 sequence (P29320 21-983): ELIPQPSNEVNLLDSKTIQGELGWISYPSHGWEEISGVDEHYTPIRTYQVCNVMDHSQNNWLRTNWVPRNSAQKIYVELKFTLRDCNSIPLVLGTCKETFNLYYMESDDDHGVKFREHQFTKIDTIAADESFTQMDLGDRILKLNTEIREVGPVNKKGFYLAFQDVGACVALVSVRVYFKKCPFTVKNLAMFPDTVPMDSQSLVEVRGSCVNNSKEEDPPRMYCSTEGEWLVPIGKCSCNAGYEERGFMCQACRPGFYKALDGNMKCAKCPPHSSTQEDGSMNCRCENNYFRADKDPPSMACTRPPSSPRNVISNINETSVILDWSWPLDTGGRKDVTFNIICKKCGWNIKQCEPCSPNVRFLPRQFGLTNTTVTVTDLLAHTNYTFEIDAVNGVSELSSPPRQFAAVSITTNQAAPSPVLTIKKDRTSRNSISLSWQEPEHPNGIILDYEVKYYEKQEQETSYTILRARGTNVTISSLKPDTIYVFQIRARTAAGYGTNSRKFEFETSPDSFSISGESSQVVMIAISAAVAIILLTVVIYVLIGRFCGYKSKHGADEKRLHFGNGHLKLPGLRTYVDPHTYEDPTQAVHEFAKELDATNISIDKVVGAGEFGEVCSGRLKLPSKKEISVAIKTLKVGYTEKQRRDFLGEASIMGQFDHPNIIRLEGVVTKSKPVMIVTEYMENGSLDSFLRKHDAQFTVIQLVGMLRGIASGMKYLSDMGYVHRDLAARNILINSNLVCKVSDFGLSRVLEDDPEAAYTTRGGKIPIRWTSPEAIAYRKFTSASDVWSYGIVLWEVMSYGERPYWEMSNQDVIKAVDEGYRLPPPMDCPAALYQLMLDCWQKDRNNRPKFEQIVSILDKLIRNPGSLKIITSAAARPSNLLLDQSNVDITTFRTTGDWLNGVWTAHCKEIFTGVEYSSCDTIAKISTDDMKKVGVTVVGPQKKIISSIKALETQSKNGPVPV
How it was run: as §1

SMILES: C=CC(=O)Nc1cc(-c2cc(-c3cc4c([nH]3)CCNC4=O)ccn2)ccc1OC(F)(F)F [compound 11]
- inhibition at 0.01 µM ([1]; 10 nM): 51%
- inhibition at 0.1 µM ([1]; 100 nM): 74%
- inhibition at 1 µM ([1]; 1000 nM): 80%
- inhibition at 0.01 µM ([2]; 10 nM): -1%
- inhibition at 0.1 µM ([2]; 100 nM): 16%
- inhibition at 1 µM ([2]; 1000 nM): 59%
- inhibition at 0.01 µM ([3]; 10 nM): -1%
- inhibition at 0.1 µM ([3]; 100 nM): -8%
- inhibition at 1 µM ([3]; 1000 nM): 3%
- inhibition at 0.01 µM ([4]; 10 nM): 7%
- inhibition at 0.1 µM ([4]; 100 nM): 9%
- inhibition at 1 µM ([4]; 1000 nM): 5%
- inhibition at 0.01 µM ([5]; 10 nM): -11%
- inhibition at 0.1 µM ([5]; 100 nM): -11%
- inhibition at 1 µM ([5]; 1000 nM): -4%
- inhibition at 0.01 µM ([6]; 10 nM): 26%
- inhibition at 0.1 µM ([6]; 100 nM): 16%
- inhibition at 1 µM ([6]; 1000 nM): 6%
- inhibition at 0.01 µM ([7]; 10 nM): 15%
- inhibition at 0.1 µM ([7]; 100 nM): -1%
- inhibition at 1 µM ([7]; 1000 nM): -10%
